Reference: patent US20180200257A1, “METHODS FOR THE TREATMENT OF INFLAMMATORY DISORDERS” (Galapagos NV, priority 2015, published 2018)

Tested on: subjects with moderately to severely active RA who have an inadequate response to methotrexate (MTX)
Assay: Study 1 (add-on to MTX) - Alanine Aminotransferase (ALT) levels
Assay type: in vivo, human
Details: 24 weeks results
Experimental: Double-blind, placebo-controlled add on study in subjects with moderately to severely active RA who have an inadequate response to methotrexate (MTX) (oral or parenteral).
595 subjects randomized to one of 6 dose regimens of Compound 1 (dosed as [Compound 1:HCl:3H2O]) (3 dose levels administered either once or twice daily) or placebo on top of each subject's stable dose of MTX.
Compound 1 (dosed as [Compound 1:HCl:3H2O]) is dosed for twelve weeks once daily (q.d.) (50 mg, 100 mg or 200 mg) or twice daily (b.i.d.) (25 mg, 50 mg or 100 mg); or placebo.
At Week 12, the subjects on placebo who have not achieved 20% improvement in swollen joint count (SJC66) and tender joint count (TJC68) are re-randomized automatically to receive Compound 1 (dosed as a [Compound 1:HCl:3H2O]) either at 100 mg q.d. or 50 mg b.i.d. doses in a blinded fashion; subjects on 50 mg q.d. who have not achieved 20% improvement in SJC66 and TJC68 will be assigned to 100 mg q.d. and subjects on 25 mg b.i.d. that have not achieved a 20% improvement in SJC66 and TJC68 will be assigned to 50 mg b.i.d. Subjects who switch treatment at week 12 are handled as if they discontinued at week 12 for the purpose of statistical analysis, whereas subjects in the other groups will maintain their randomized treatment until Week 24.
ALT levels determination is available at Quest Diagnostics, Clinical Trials, Quest House, 125-135 Staines Road, Hounslow, Middlesex, TW3 3JB, United Kingdom under Catalogue n#84460.
ALT catalyzes the exchange of the amino group of alanine with the oxogroup of 2-ketoglutarate to form pyruvate and glutamate. In the presence of lactic dehydrogenase, pyruvate reacts with NADH to form NAD+, measured spectrophotometrically. Guidelines for the ALT value have been issued by the association for Clinical Biochemistry and Laboratory Medicine, 130-132 Tooley Street LONDON SE1 2TU, united Kingdom, wherein the ALT value should be below 34 U/l in Female and below 52 U/L in male.

[1] = continued 100 mg b.i.d., week 1
[2] = continued 100 mg b.i.d., week 2
[3] = continued 100 mg b.i.d., week 4
[4] = continued 100 mg b.i.d., week 8
[5] = continued 100 mg b.i.d., week 12
[6] = continued 100 mg b.i.d., week 16
[7] = continued 100 mg b.i.d., week 20
[8] = continued 100 mg b.i.d., week 24
[9] = from 25 mg b.i.d. to 50 mg b.i.d. at 12 weeks, week 1
[10] = from 25 mg b.i.d. to 50 mg b.i.d. at 12 weeks, week 2
[11] = from 25 mg b.i.d. to 50 mg b.i.d. at 12 weeks, week 4
[12] = from 25 mg b.i.d. to 50 mg b.i.d. at 12 weeks, week 8
[13] = from 25 mg b.i.d. to 50 mg b.i.d. at 12 weeks, week 12
[14] = from 25 mg b.i.d. to 50 mg b.i.d. at 12 weeks, week 16
[15] = from 25 mg b.i.d. to 50 mg b.i.d. at 12 weeks, week 20
[16] = from 25 mg b.i.d. to 50 mg b.i.d. at 12 weeks, week 24
[17] = from 50 mg q.d. to 100 mg q.d. at 12 weeks, week 1
[18] = from 50 mg q.d. to 100 mg q.d. at 12 weeks, week 2
[19] = from 50 mg q.d. to 100 mg q.d. at 12 weeks, week 4
[20] = from 50 mg q.d. to 100 mg q.d. at 12 weeks, week 8
[21] = from 50 mg q.d. to 100 mg q.d. at 12 weeks, week 12
[22] = from 50 mg q.d. to 100 mg q.d. at 12 weeks, week 16
[23] = from 50 mg q.d. to 100 mg q.d. at 12 weeks, week 20
[24] = from 50 mg q.d. to 100 mg q.d. at 12 weeks, week 24
[25] = placebo switched to 50 mg b.i.d. at week 12, week 16
[26] = placebo switched to 50 mg b.i.d. at week 12, week 20
[27] = placebo switched to 50 mg b.i.d. at week 12, week 24
[28] = placebo switched to 100 mg q.d. at week 12, week 16
[29] = placebo switched to 100 mg q.d. at week 12, week 20
[30] = placebo switched to 100 mg q.d. at week 12, week 24

O=C(Nc1nc2cccc(-c3ccc(CN4CCS(=O)(=O)CC4)cc3)n2n1)C1CC1 [Compound 1, cyclopropanecarboxylic acid {5-[4-(1,1-dioxo-thiomorpholin-4-ylmethyl)-phenyl]-[1,2,4]triazolo[1,5-a]pyridin-2-yl}-amide]
Study 1 - ALT Mean CFB (continued 50 mg q.d., week 12): 0.5 IU/L
Study 1 - ALT Mean percentage CFB (continued 50 mg q.d., week 12): 13.8%
Study 1 - ALT Mean CFB (continued 50 mg q.d., week 16): 1.1 IU/L
Study 1 - ALT Mean percentage CFB (continued 50 mg q.d., week 16): 18.1%
Study 1 - ALT Mean CFB (continued 50 mg q.d., week 20): 2.2 IU/L
Study 1 - ALT Mean percentage CFB (continued 50 mg q.d., week 20): 22.1%
Study 1 - ALT Mean CFB (continued 50 mg q.d., week 24): 1.7 IU/L
Study 1 - ALT Mean percentage CFB (continued 50 mg q.d., week 24): 19.4%
Study 1 - ALT Mean CFB [1]: 0.5 IU/L
Study 1 - ALT Mean percentage CFB [1]: 8.8%
Study 1 - ALT Mean CFB [2]: 0.8 IU/L
Study 1 - ALT Mean percentage CFB [2]: 10.4%
Study 1 - ALT Mean CFB [3]: 0.8 IU/L
Study 1 - ALT Mean percentage CFB [3]: 20.4%
Study 1 - ALT Mean CFB [4]: 0.6 IU/L
Study 1 - ALT Mean percentage CFB [4]: 24.5%
Study 1 - ALT Mean CFB [5]: 1.7 IU/L
Study 1 - ALT Mean percentage CFB [5]: 26.0%
Study 1 - ALT Mean CFB [6]: 3.2 IU/L
Study 1 - ALT Mean percentage CFB [6]: 32.4%
Study 1 - ALT Mean CFB [7]: 2.8 IU/L
Study 1 - ALT Mean percentage CFB [7]: 34.2%
Study 1 - ALT Mean CFB [8]: 4.0 IU/L
Study 1 - ALT Mean percentage CFB [8]: 47.8%
Study 1 - ALT Mean CFB (continued 100 mg q.d., week 1): 3.0 IU/L
Study 1 - ALT Mean percentage CFB (continued 100 mg q.d., week 1): 13.6%
Study 1 - ALT Mean CFB (continued 100 mg q.d., week 2): 0.9 IU/L
Study 1 - ALT Mean percentage CFB (continued 100 mg q.d., week 2): 8.8%
Study 1 - ALT Mean CFB (continued 100 mg q.d., week 4): 0.6 IU/L
Study 1 - ALT Mean percentage CFB (continued 100 mg q.d., week 4): 9.1%
Study 1 - ALT Mean CFB (continued 100 mg q.d., week 8): 1.7 IU/L
Study 1 - ALT Mean percentage CFB (continued 100 mg q.d., week 8): 15.1%
Study 1 - ALT Mean CFB (continued 100 mg q.d., week 12): 1.6 IU/L
Study 1 - ALT Mean percentage CFB (continued 100 mg q.d., week 12): 15.6%
Study 1 - ALT Mean CFB (continued 100 mg q.d., week 16): 0.7 IU/L
Study 1 - ALT Mean percentage CFB (continued 100 mg q.d., week 16): 9.5%
Study 1 - ALT Mean CFB (continued 100 mg q.d., week 20): 1.8 IU/L
Study 1 - ALT Mean percentage CFB (continued 100 mg q.d., week 20): 19.8%
Study 1 - ALT Mean CFB (continued 100 mg q.d., week 24): 5.1 IU/L
Study 1 - ALT Mean percentage CFB (continued 100 mg q.d., week 24): 39.5%
Study 1 - ALT Mean CFB (continued 200 mg q.d., week 1): 2.3 IU/L
Study 1 - ALT Mean percentage CFB (continued 200 mg q.d., week 1): 11.4%
Study 1 - ALT Mean CFB (continued 200 mg q.d., week 2): 1.4 IU/L
Study 1 - ALT Mean percentage CFB (continued 200 mg q.d., week 2): 15.5%
Study 1 - ALT Mean CFB (continued 200 mg q.d., week 4): 1.1 IU/L
Study 1 - ALT Mean percentage CFB (continued 200 mg q.d., week 4): 15.1%
Study 1 - ALT Mean CFB (continued 200 mg q.d., week 8): 3.9 IU/L
Study 1 - ALT Mean percentage CFB (continued 200 mg q.d., week 8): 31.1%
Study 1 - ALT Mean CFB (continued 200 mg q.d., week 12): 3.4 IU/L
Study 1 - ALT Mean percentage CFB (continued 200 mg q.d., week 12): 33.9%
Study 1 - ALT Mean CFB (continued 200 mg q.d., week 16): 4.7 IU/L
Study 1 - ALT Mean percentage CFB (continued 200 mg q.d., week 16): 43.8%
Study 1 - ALT Mean CFB (continued 200 mg q.d., week 20): 2.9 IU/L
Study 1 - ALT Mean percentage CFB (continued 200 mg q.d., week 20): 32.9%
Study 1 - ALT Mean CFB (continued 200 mg q.d., week 24): 5.4 IU/L
Study 1 - ALT Mean percentage CFB (continued 200 mg q.d., week 24): 47.5%
Study 1 - ALT Mean CFB [9]: −7.8 IU/L
Study 1 - ALT Mean percentage CFB [9]: −16.4%
Study 1 - ALT Mean CFB [10]: −7.3 IU/L
Study 1 - ALT Mean percentage CFB [10]: −12.0%
Study 1 - ALT Mean CFB [11]: −5.6 IU/L
Study 1 - ALT Mean percentage CFB [11]: 0.0%
Study 1 - ALT Mean CFB [12]: −8.3 IU/L
Study 1 - ALT Mean percentage CFB [12]: −16.4%
Study 1 - ALT Mean CFB [13]: −6.4 IU/L
Study 1 - ALT Mean percentage CFB [13]: −5.8%
Study 1 - ALT Mean CFB [14]: −7.9 IU/L
Study 1 - ALT Mean percentage CFB [14]: −9.7%
Study 1 - ALT Mean CFB [15]: −5.4 IU/L
Study 1 - ALT Mean percentage CFB [15]: 5.9%
Study 1 - ALT Mean CFB [16]: −4.8 IU/L
Study 1 - ALT Mean percentage CFB [16]: 5.7%
Study 1 - ALT Mean CFB [17]: 0.4 IU/L
Study 1 - ALT Mean percentage CFB [17]: 0.9%
Study 1 - ALT Mean CFB [18]: −1.4 IU/L
Study 1 - ALT Mean percentage CFB [18]: −6.5%
Study 1 - ALT Mean CFB [19]: −0.3 IU/L
Study 1 - ALT Mean percentage CFB [19]: 2.2%
Study 1 - ALT Mean CFB [20]: −0.2 IU/L
Study 1 - ALT Mean percentage CFB [20]: 3.6%
Study 1 - ALT Mean CFB [21]: −0.1 IU/L
Study 1 - ALT Mean percentage CFB [21]: 5.2%
Study 1 - ALT Mean CFB [22]: −2.3 IU/L
Study 1 - ALT Mean percentage CFB [22]: −9.8%
Study 1 - ALT Mean CFB [23]: −1.7 IU/L
Study 1 - ALT Mean percentage CFB [23]: −3.7%
Study 1 - ALT Mean CFB [24]: −3.0 IU/L
Study 1 - ALT Mean percentage CFB [24]: −8.7%
Study 1 - ALT Mean CFB [25]: 0.5 IU/L
Study 1 - ALT Mean percentage CFB [25]: 1.1%
Study 1 - ALT Mean CFB [26]: 0.7 IU/L
Study 1 - ALT Mean percentage CFB [26]: 0.7%
Study 1 - ALT Mean CFB [27]: 1.0 IU/L
Study 1 - ALT Mean percentage CFB [27]: 6.8%
Study 1 - ALT Mean CFB [28]: −1.3 IU/L
Study 1 - ALT Mean percentage CFB [28]: 0.4%
Study 1 - ALT Mean CFB [29]: 0.5 IU/L
Study 1 - ALT Mean percentage CFB [29]: 5.9%
Study 1 - ALT Mean CFB [30]: −0.1 IU/L
Study 1 - ALT Mean percentage CFB [30]: 10.0%
